# Key:
# [1] = test system: H2347 NSCLC cells; test: Caspase 3/7 activation, H2347; assay type: cell-based; design: key: −: lack of caspase 3/7 activation after 24 hours of compound treatment; ++: moderate; +++: strong; ++++: very strong; details: H2347, KRAS^Q61K; BRG1 WT, LKB1 WT, CDKN2A WT; 24 hours
# Protocol: (§1) Inhibition of cell growth and induction of apoptosis were determined by CellTiter-Glo® and caspase 3/7 activation assays after 72 and 24 hours of treatment, respectively.
# [2] = test system: H460 NSCLC cells; test: Caspase 3/7 activation, H460; assay type: cell-based; design: key: −: lack of caspase 3/7 activation after 24 hours of compound treatment; ++: moderate; +++: strong; ++++: very strong; details: H460, KRAS^Q61H; BRG1 WT, LKB1 MUT, CDKN2A MUT; 24 hours
# Protocol: (§2) A panel of 24 non-small cell lung carcinoma (NSCLC) cell lines harboring RAS mutations was analyzed for genomic alterations, gene expression profiling and protein phosphorylation in MAPK and PI3K pathways. Inhibition of cell growth and induction of apoptosis were determined by CellTiter-Glo® and caspase 3/7 activation assays after 72 and 24 hours of treatment, respectively.
# [3] = test system: COR-L23 NSCLC cells; test: Caspase 3/7 activation, COR-L23; assay type: cell-based; design: key: −: lack of caspase 3/7 activation after 24 hours of compound treatment; ++: moderate; +++: strong; ++++: very strong; details: COR-L23, KRAS^G12V; BRG1 WT, LKB1 WT, CDKN2A WT; 24 hours
# Protocol: as §2
# [4] = test system: Calu1 NSCLC cells; test: Caspase 3/7 activation, Calu1; assay type: cell-based; design: key: −: lack of caspase 3/7 activation after 24 hours of compound treatment; ++: moderate; +++: strong; ++++: very strong; details: Calu1, KRAS^G12c; BRG1 WT, LKB1 WT, CDKN2A WT; 24 hours
# Protocol: as §2
# [5] = test system: Calu6 NSCLC cells; test: Caspase 3/7 activation, Calu6; assay type: cell-based; design: key: −: lack of caspase 3/7 activation after 24 hours of compound treatment; ++: moderate; +++: strong; ++++: very strong; details: Calu6, KRAS^Q61K; BRG1 WT, LKB1 WT, CDKN2A WT; 24 hours
# Protocol: as §1
# [6] = test system: H358 NSCLC cells; test: Caspase 3/7 activation, H358; assay type: cell-based; design: key: −: lack of caspase 3/7 activation after 24 hours of compound treatment; ++: moderate; +++: strong; ++++: very strong; details: H358, KRAS^G12c; BRG1 WT, LKB1 WT, CDKN2A WT; 24 hours
# Protocol: as §1
# [7] = test system: H1792 NSCLC cells; test: Caspase 3/7 activation, H1792; assay type: cell-based; design: key: −: lack of caspase 3/7 activation after 24 hours of compound treatment; ++: moderate; +++: strong; ++++: very strong; details: H1792, KRAS^G12c; BRG1 WT, LKB1 WT, CDKN2A WT; 24 hours
# Protocol: as §1
# [8] = test system: RAS-mutant NSCLC cell lines; test: Inhibition of cell growth (CellTiter-Glo) in panel of RAS-mutant NSCLC cell lines; details: Ras mut NSCLC cell lines; CellTiter-Glo, 72 hours of treatment
# Protocol: Cells are plated in 384-well plates at 500 cells/well in culture media appropriate for each cell type, supplemented with 10% FBS and 1% penicillin/streptomycin, and incubated overnight at 37° C., 5% CO2. Cells are treated in a grid manner with dilution of Compound A^2 (20 dilutions, including no compound, of 2-fold dilutions starting from 1-20 μM depending of compound) from left to right on 384-well plate and also treated with Compound B^2 (20 dilutions, including no compound, of 2-fold dilutions starting from 1-20 μM depending of compound) from top to bottom on 384-well plate and incubated as above for a further 72 hours. In some instances compounds are added in a staggered manner and incubation time can be extended up to 7 days. Cell growth is measured using CellTiter-Glo® reagent according to the manufacturer's protocol and signals are read on a PerkinElmer EnVision™ reader set for luminescence mode with a 0.5-second read.
# Results are expressed as a percentage of the t=0 value and plotted against compound(s) concentration. The t=0 value is normalized to 100% and represents the number of cells present at the time of compound addition. The cellular response is determined for each compound and/or compound combination using a 4- or 6-parameter curve fit of cell viability against concentration using the IDBS XLfit plug-in for Microsoft Excel software and determining the concentration required for 50% inhibition of cell growth (gIC50). Background correction is made by subtraction of values from wells containing no cells.
# as §2
# [9] = test system: SW900 NSCLC cells; test: Caspase 3/7 activation, SW900; assay type: cell-based; design: key: −: lack of caspase 3/7 activation after 24 hours of compound treatment; ++: moderate; +++: strong; ++++: very strong; details: SW900, KRAS^G12V; BRG1 WT, LKB1 WT, CDKN2A MUT; 24 hours
# Protocol: as §1
# [10] = test system: H727 NSCLC cells; test: Caspase 3/7 activation, H727; assay type: cell-based; design: key: −: lack of caspase 3/7 activation after 24 hours of compound treatment; ++: moderate; +++: strong; ++++: very strong; details: H727, KRAS^G12V; BRG1 WT, LKB1 WT, CDKN2A WT; 24 hours
# Protocol: as §1
# [11] = test system: A427 NSCLC cells; test: Caspase 3/7 activation, A427; assay type: cell-based; design: key: −: lack of caspase 3/7 activation after 24 hours of compound treatment; ++: moderate; +++: strong; ++++: very strong; details: A427, KRAS^G12D; BRG1 MUT, LKB1 MUT, CDKN2A WT; 24 hours
# Protocol: as §1
# [12] = test system: H441 NSCLC cells; test: Caspase 3/7 activation, H441; assay type: cell-based; design: key: −: lack of caspase 3/7 activation after 24 hours of compound treatment; ++: moderate; +++: strong; ++++: very strong; details: H441, KRAS^G12V; BRG1 WT, LKB1 WT, CDKN2A WT; 24 hours
# Protocol: as §1
# [13] = test system: H1299 NSCLC cells; test: Caspase 3/7 activation, H1299; assay type: cell-based; design: key: −: lack of caspase 3/7 activation after 24 hours of compound treatment; ++: moderate; +++: strong; ++++: very strong; details: H1299, KRAS^Q61H; BRG1 MUT, LKB1 WT, CDKN2A WT; 24 hours
# Protocol: as §1
# [14] = test system: H2030 NSCLC cells; test: Caspase 3/7 activation, H2030; assay type: cell-based; design: key: −: lack of caspase 3/7 activation after 24 hours of compound treatment; ++: moderate; +++: strong; ++++: very strong; details: H2030, KRAS^G12c; BRG1 MUT, LKB1 MUT, CDKN2A WT; 24 hours
# Protocol: as §1
# [15] = test system: H1355 NSCLC cells; test: Caspase 3/7 activation, H1355; assay type: cell-based; design: key: −: lack of caspase 3/7 activation after 24 hours of compound treatment; ++: moderate; +++: strong; ++++: very strong; details: H1355, KRAS^G13C; BRG1 NULL, LKB1 MUT, CDKN2A WT; 24 hours
# Protocol: as §2
# [16] = test system: H23 NSCLC cells; test: Caspase 3/7 activation, H23; assay type: cell-based; design: key: −: lack of caspase 3/7 activation after 24 hours of compound treatment; ++: moderate; +++: strong; ++++: very strong; details: H23, KRAS^G12c; BRG1 MUT, LKB1 MUT, CDKN2A WT; 24 hours
# Protocol: as §1
# [17] = test system: H2291 NSCLC cells; test: Caspase 3/7 activation, H2291; assay type: cell-based; design: key: −: lack of caspase 3/7 activation after 24 hours of compound treatment; ++: moderate; +++: strong; ++++: very strong; details: H2291, KRAS^G12F; BRG1 WT, LKB1 WT, CDKN2A WT; 24 hours
# Protocol: as §1
# [18] = test system: A549 NSCLC cells; test: Caspase 3/7 activation, A549; assay type: cell-based; design: key: −: lack of caspase 3/7 activation after 24 hours of compound treatment; ++: moderate; +++: strong; ++++: very strong; details: A549, KRAS^G12S; BRG1 MUT, LKB1 MUT, CDKN2A MUT; 24 hours
# Protocol: as §1
# [19] = test system: H157 NSCLC cells; test: Caspase 3/7 activation, H157; assay type: cell-based; design: key: −: lack of caspase 3/7 activation after 24 hours of compound treatment; ++: moderate; +++: strong; ++++: very strong; details: H157, KRAS^G12R; BRG1 MUT, LKB1 MUT, CDKN2A WT; 24 hours
# Protocol: as §2
Structure (SMILES),Apoptosis Response (caspase 3/7 activation) [1],Apoptosis Response (caspase 3/7 activation) [2],Apoptosis Response (caspase 3/7 activation) [3],Apoptosis Response (caspase 3/7 activation) [4],Apoptosis Response (caspase 3/7 activation) [5],Apoptosis Response (caspase 3/7 activation) [6],Apoptosis Response (caspase 3/7 activation) [7],"Response Rate (sensitivity/total lines tested), Cell growth inhibition [8]",Apoptosis Response (caspase 3/7 activation) [9],Apoptosis Response (caspase 3/7 activation) [10],Apoptosis Response (caspase 3/7 activation) [11],Apoptosis Response (caspase 3/7 activation) [12],Apoptosis Response (caspase 3/7 activation) [13],Apoptosis Response (caspase 3/7 activation) [14],Apoptosis Response (caspase 3/7 activation) [15],Apoptosis Response (caspase 3/7 activation) [16],Apoptosis Response (caspase 3/7 activation) [17],Apoptosis Response (caspase 3/7 activation) [18],Apoptosis Response (caspase 3/7 activation) [19]
"CC(=O)Nc1cccc(-n2c(=O)n(C3CC3)c(=O)c3c(Nc4ccc(I)cc4F)n(C)c(=O)c(C)c32)c1 [Compound A, N-{3-[3-cyclopropyl-5-(2-fluoro-4-iodo-phenylamino)-6,8-dimethyl-2,4,7-trioxo-3,4,6,7-tetrahydro-2H-pyrido[4,3-d]pyrimidin-1-yl]phenyl}acetamide]",++,−,−,−,++,−,++,38% (9/24),−,++,−,−,−,−,−,−,++,−,−
"CC(=O)O[C@@]12CO[C@@H]1C[C@H](O)[C@@]1(C)C(=O)[C@H](O)C3=C(C)[C@@H](OC(=O)[C@H](O)[C@@H](NC(=O)OC(C)(C)C)c4ccccc4)C[C@@](O)([C@@H](OC(=O)c4ccccc4)[C@H]21)C3(C)C [Docataxel, (2R,3S)—N-carboxy-3-phenylisoserine,N-tert-butyl ester, 13-ester with 5β-20-epoxy-1,2α,4,7β,10β,13α-hexahydroxytax-11-en-9-one 4-acetate 2-benzoate, trihydrate]",−,++,−,−,++,++,+++,88% (21/24),−,−,++,−,−,++,−,+++,−,−,++
